The target of this test is CDK12 (Homo sapiens, UniProt Q9NYV4). Kind of test: Biochemical assay for CDK12 (LANCE TR-FRET, IC50 determination). The note with it: for IC50: CDK12, IC50 class, read-out: IC50 μM (in range); for inhibition at 10 µM / CDK12 % Inhibition @ 10 μM: compound at 10 μM; for inhibition at 10 µM: read-out: CDK12 % Inhibition @ 10 μM. As to the method:
Biochemical Assay for CDK12 (IC50 Determination):
The inhibitory activity of the test compounds was assessed by the LANCE TR-FRET assay, which detects the ATP-dependent phosphorylation of an ULight-4E-BP1 (Thr37/Thr46) substrate peptide (100 nM) by CDK12 (30 nM). Briefly, the enzyme reaction was run in reaction buffer (25 mM HEPES (pH 7.5), 10 mM MgCl2, […], 0.01% Triton x, 1 mM DTT). The assay was performed in 384-well plate format. The end concentration of the ATP substrate was […], and that of the ULight-4E-BP1 (Thr37/Thr46) substrate peptide was 100 nM, and of CDK12 was 30 nM. Pre-incubation of the compound and enzyme was performed for 60 min at room temperature. After 60 min incubation at room temperature, the reaction was terminated by the addition of 40 mM EDTA and 0.5 nM Eu-labeled anti-phospho-eIF4E-binding protein (Thr37/46) antibody in LANCE detection buffer. Time-resolved fluorescence (excitation, 320 nm; emission donor, 615 nm; emission acceptor, 665 nm) was monitored by using 2030 multilabel reader Victor5 (PerkinElmer). The Fluorescence emission of the samples were measured and the ratio was plotted against the compound concentration to generate the dose response curve. The IC50 values were derived by fitting a sigmoidal dose-response curve to a plot of assay readout over inhibitor concentration. All fits were computed with the program Prism 5.03 (Graph Pad Software, San Diego, CA). The % inhibition values at […] were calculated with respect to enzyme activity.
A general note: In TR-FRET formats the signal depends on donor and acceptor labels being close together.

These results are taken from patent US20260000692A1, “Substituted N-(Pyridin-2-yl)Acetamide Derivatives as CDK12/13 Inhibitors” (Aurigene Oncology Limited, priority 2022, published 2026).

Structures are written as SMILES.

Chain of CDK12 (Q9NYV4 whole entry): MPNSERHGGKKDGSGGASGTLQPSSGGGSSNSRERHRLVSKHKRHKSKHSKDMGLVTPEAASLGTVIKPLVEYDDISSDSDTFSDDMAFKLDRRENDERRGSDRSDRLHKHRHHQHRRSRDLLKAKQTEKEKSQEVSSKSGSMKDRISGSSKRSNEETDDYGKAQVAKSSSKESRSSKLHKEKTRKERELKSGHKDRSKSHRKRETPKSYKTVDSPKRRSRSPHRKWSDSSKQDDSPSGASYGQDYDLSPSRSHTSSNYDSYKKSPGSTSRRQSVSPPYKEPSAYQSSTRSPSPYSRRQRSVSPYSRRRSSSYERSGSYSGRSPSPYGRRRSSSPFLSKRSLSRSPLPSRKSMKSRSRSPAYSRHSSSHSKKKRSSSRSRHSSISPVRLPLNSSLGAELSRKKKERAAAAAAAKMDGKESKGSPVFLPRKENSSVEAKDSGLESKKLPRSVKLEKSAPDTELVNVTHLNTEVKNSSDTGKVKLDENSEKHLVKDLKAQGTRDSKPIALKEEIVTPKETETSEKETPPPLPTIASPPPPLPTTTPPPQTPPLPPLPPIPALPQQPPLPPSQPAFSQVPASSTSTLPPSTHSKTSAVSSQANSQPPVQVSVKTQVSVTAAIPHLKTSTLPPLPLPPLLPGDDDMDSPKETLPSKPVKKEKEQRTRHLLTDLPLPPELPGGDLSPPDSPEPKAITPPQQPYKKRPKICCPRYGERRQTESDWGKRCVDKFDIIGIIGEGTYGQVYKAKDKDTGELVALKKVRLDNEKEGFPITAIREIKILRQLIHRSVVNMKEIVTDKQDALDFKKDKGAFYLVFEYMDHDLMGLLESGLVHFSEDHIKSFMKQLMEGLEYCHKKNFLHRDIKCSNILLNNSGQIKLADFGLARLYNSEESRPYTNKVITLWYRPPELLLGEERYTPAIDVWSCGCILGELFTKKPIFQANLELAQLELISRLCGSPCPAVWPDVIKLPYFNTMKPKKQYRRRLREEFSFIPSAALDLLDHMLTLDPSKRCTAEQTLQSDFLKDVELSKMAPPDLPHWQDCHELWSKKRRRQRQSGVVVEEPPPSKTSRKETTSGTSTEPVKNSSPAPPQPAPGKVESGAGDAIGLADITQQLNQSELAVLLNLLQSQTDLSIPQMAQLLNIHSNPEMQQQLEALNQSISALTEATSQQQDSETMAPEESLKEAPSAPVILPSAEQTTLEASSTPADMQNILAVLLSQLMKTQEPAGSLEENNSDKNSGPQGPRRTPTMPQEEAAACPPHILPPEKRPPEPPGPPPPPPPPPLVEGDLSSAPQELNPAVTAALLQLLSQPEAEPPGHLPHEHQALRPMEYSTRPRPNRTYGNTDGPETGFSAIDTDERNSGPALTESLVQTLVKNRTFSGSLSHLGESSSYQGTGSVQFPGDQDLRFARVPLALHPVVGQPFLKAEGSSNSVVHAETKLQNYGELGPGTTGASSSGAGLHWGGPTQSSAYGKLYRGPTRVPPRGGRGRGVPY
Chain of CDK12 (O75909 whole entry partner): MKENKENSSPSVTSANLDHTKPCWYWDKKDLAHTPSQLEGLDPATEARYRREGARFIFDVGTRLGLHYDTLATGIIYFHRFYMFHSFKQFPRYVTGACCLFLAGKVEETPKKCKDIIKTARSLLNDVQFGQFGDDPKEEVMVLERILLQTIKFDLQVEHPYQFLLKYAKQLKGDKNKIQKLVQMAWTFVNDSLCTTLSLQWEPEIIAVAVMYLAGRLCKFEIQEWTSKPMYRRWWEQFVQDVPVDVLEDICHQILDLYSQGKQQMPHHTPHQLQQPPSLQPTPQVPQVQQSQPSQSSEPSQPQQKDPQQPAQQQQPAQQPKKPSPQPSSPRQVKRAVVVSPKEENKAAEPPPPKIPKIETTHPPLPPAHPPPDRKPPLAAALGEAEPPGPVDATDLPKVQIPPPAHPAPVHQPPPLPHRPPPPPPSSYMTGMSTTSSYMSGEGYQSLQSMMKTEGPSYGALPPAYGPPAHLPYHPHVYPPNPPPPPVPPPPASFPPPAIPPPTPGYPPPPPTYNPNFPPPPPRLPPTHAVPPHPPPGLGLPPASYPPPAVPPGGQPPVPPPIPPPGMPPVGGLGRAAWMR

`CNC(=O)C(C)Oc1cc(NC(=O)Cc2ccc(C3CCCN(C#N)C3)nc2)ncc1Cl` (single isomer, unassigned) [Compound 86, 2-((5-chloro-2-(2-(6-(1-cyanopiperidin-3-yl)pyridin-3-yl)acetamido)pyridin-4-yl)oxy)-N-methylpropanamide]: the IC50 – broadly, the concentration needed to halve the response being measured – is greater than 0.1 µM and the inhibition (in general, the change of the read-out against control, counted positive when it falls) at 10 µM amounted to 84%. In the case of `CNC(=O)C(C)Oc1cc(NC(=O)Cc2ccc(C3CCCN(C#N)C3)nc2)ncc1Cl` (single isomer, unassigned) [Compound 87, 2-((5-chloro-2-(2-(6-(1-cyanopiperidin-3-yl)pyridin-3-yl)acetamido)pyridin-4-yl)oxy)-N-methylpropanamide], the IC50 was greater than 0.1 µM and the “CDK12 % Inhibition @ 10 μM” value is given as 85%.

Consider `CNC(=O)C(C)Oc1cc(NC(=O)Cc2ccc(C3CCCN(C#N)C3)nc2)ncc1Cl` (single isomer, unassigned) [Compound 88, 2-((5-chloro-2-(2-(6-(1-cyanopiperidin-3-yl)pyridin-3-yl)acetamido)pyridin-4-yl)oxy)-N-methylpropanamide], for which the IC50 is greater than 0.1 µM and the “CDK12 % Inhibition @ 10 μM” value came to 79%. Consider `CNC(=O)C(C)Oc1cc(NC(=O)Cc2ccc(C3CCCN(C#N)C3)nc2)ncc1Cl` (single isomer, unassigned) [Compound 89, 2-((5-chloro-2-(2-(6-(1-cyanopiperidin-3-yl)pyridin-3-yl)acetamido)pyridin-4-yl)oxy)-N-methylpropanamide], for which the 50% inhibitory concentration (IC50) was in the range of 0.01 to 0.1 µM and the “CDK12 % Inhibition @ 10 μM” value was found to be 90%. The corresponding values for `CNC(=O)C(C)Oc1cc(NC(=O)Cc2ccc(C3CCCN(C#N)C3)nc2)ncc1Cl` (single isomer, unassigned) [Compound 90, 2-((5-chloro-2-(2-(6-(1-cyanopiperidin-3-yl)pyridin-3-yl)acetamido)pyridin-4-yl)oxy)-N-methylpropanamide] are 0.01 to 0.1 µM and 93%.

In the case of `CNC(=O)C(C)Oc1cc(NC(=O)Cc2ccc(C3CCCN(C#N)C3)nc2)ncc1Cl` (single isomer, unassigned) [Compound 91, 2-((5-chloro-2-(2-(6-(1-cyanopiperidin-3-yl)pyridin-3-yl)acetamido)pyridin-4-yl)oxy)-N-methylpropanamide], the IC50 was in the range of 0.01 to 0.1 µM and the “CDK12 % Inhibition @ 10 μM” value worked out at 95%. Consider `N#CN1CCCC(c2ccc(CC(=O)Nc3cc(O[C@@H]4CCOC4)c(Cl)cn3)cn2)C1` (single isomer, unassigned) [Compound 93], for which the IC50 lay within 0.01 to 0.1 µM and the inhibition at 10 µM turned out to be 73%.

With `N#CN1CCCC(c2ccc(CC(=O)Nc3cc(O[C@@H]4CCOC4)c(Cl)cn3)cn2)C1` (single isomer, unassigned) [Compound 94], the IC50 fell in the range of 0.01 to 0.1 µM and the “CDK12 % Inhibition @ 10 μM” value worked out at 77%. Consider `N#CN1CCCC(c2ccc(CC(=O)Nc3cc(O[C@H]4CCOC4)c(Cl)cn3)cn2)C1` (single isomer, unassigned) [Compound 96], for which the 50% inhibitory concentration (IC50) is greater than 0.1 µM and the inhibition at 10 µM was found to be 91%.

With `N#CN1CCCC(c2ccc(CC(=O)Nc3cc(O[C@H]4CCOC4)c(Cl)cn3)cn2)C1` (single isomer, unassigned) [Compound 97], the IC50 lay in the range of 0.01 to 0.1 µM and the “CDK12 % Inhibition @ 10 μM” value is given as 96%.

Consider `CN1CCC(Oc2cc(NC(=O)Cc3ccc(C4=CCN(C#N)CC4)nc3)ncc2Cl)C1` (stereo in doubt) [Compound 29, (R)-N-(5-chloro-4-((1-methylpyrrolidin-3-yl)oxy)pyridin-2-yl)-2-(1′-cyano-1′,2′,3′,6′-tetrahydro-[2,4′-bipyridin]-5-yl)acetamide], for which the IC50 is 0.01 to 0.1 µM and the inhibition at 10 µM worked out at 86%. The corresponding values for `CN1CCC(Oc2cc(NC(=O)Cc3ccc(C4=CCN(C#N)CC4)nc3)ncc2Cl)C1` (stereo in doubt) [Compound 30, (S)-N-(5-chloro-4-((1-methylpyrrolidin-3-yl)oxy)pyridin-2-yl)-2-(1′-cyano-1′,2′,3′,6′-tetrahydro-[2,4′-bipyridin]-5-yl)acetamide] are 0.01 to 0.1 µM and 82%.

On to `CNC(=O)C(C)Oc1cc(NC(=O)Cc2ccc(C3=CCN(C#N)CC3)nc2)ncc1Cl` (stereo not drawn) [Compound 1, 2-((5-chloro-2-(2-(1′-cyano-1′,2′,3′,6′-tetrahydro-[2,4′-bipyridin]-5-yl)acetamido)pyridin-4-yl)oxy)-N-methylpropanamide], for which the IC50 is less than 0.01 µM and the inhibition at 10 µM was 92%. `N#CN1CC=C(c2ccc(CC(=O)Nc3ccc(Cl)cn3)cn2)CC1` [Compound 4, N-(5-chloropyridin-2-yl)-2-(1′-cyano-1′,2′,3′,6′-tetrahydro-[2,4′-bipyridin]-5-yl)acetamide]: the IC50 was in the range of 0.01 to 0.1 µM and the inhibition at 10 µM was found to be 75%.

On to `N#CN1CCC=C(c2ccc(CC(=O)Nc3ccc(Cl)cn3)cn2)C1` [Compound 5, N-(5-chloropyridin-2-yl)-2-(1′-cyano-1′,2′,5′,6′-tetrahydro-[2,3′-bipyridin]-5-yl)acetamide], for which the IC50 lay in the range of 0.01 to 0.1 µM and the inhibition at 10 µM is 75%. The corresponding values for `N#CN1CC=C(c2ccc(CC(=O)Nc3ccc(Cl)cn3)cn2)C1` [Compound 6, N-(5-chloropyridin-2-yl)-2-(6-(1-cyano-2,5-dihydro-1H-pyrrol-3-yl)pyridin-3-yl)acetamide] are less than 0.01 µM and 78%. The corresponding values for `N#CN1CC=C(c2ccc(CC(=O)Nc3cc(N4CCOCC4)c(Cl)cn3)cn2)CC1` [Compound 7, N-(5-chloro-4-morpholinopyridin-2-yl)-2-(1′-cyano-1′,2′,3′,6′-tetrahydro-[2,4′-bipyridin]-5-yl)acetamide] are 0.01 to 0.1 µM and 88%.

With `COc1cc(NC(=O)Cc2ccc(C3=CCN(C#N)CC3)nc2)ncc1Cl` [Compound 8, N-(5-chloro-4-methoxypyridin-2-yl)-2-(1′-cyano-1′,2′,3′,6′-tetrahydro-[2,4′-bipyridin]-5-yl)acetamide], the IC50 is less than 0.01 µM and the inhibition at 10 µM was 82%. In the case of `CN1CCN(c2cc(NC(=O)Cc3ccc(C4=CCN(C#N)CC4)nc3)ncc2Cl)CC1` [Compound 9, N-(5-chloro-4-(4-methylpiperazin-1-yl)pyridin-2-yl)-2-(1′-cyano-1′,2′,3′,6′-tetrahydro-[2,4′-bipyridin]-5-yl)acetamide], the inhibition at 10 µM worked out at 64%. Consider `CN1CCC(Oc2cc(NC(=O)Cc3ccc(C4=CCN(C#N)CC4)nc3)ncc2Cl)C1` (stereo not drawn) [Compound 10, N-(5-chloro-4-((1-methylpyrrolidin-3-yl)oxy)pyridin-2-yl)-2-(1′-cyano-1′,2′,3′,6′-tetrahydro-[2,4′-bipyridin]-5-yl)acetamide], for which the IC50 is less than 0.01 µM and the inhibition at 10 µM worked out at 72%. The corresponding values for `CN1CCC(Oc2cc(NC(=O)Cc3ccc(C4=CCN(C#N)CC4)nc3)ncc2Cl)CC1` [Compound 11, N-(5-chloro-4-((1-methylpiperidin-4-yl)oxy)pyridin-2-yl)-2-(1′-cyano-1′,2′,3′,6′-tetrahydro-[2,4′-bipyridin]-5-yl)acetamide] are 0.01 to 0.1 µM and 89%. The corresponding values for `N#CN1CC=C(c2ccc(CC(=O)Nc3cc(OC4CCOC4)c(Cl)cn3)cn2)CC1` (stereo not drawn) [Compound 12, N-(5-chloro-4-((tetrahydrofuran-3-yl)oxy)pyridin-2-yl)-2-(1′-cyano-1′,2′,3′,6′-tetrahydro-[2,4′-bipyridin]-5-yl)acetamide] are less than 0.01 µM and 84%. The corresponding values for `Cc1cc(CC(=O)Nc2ccc(Cl)cn2)cnc1C1=CCN(C#N)CC1` [Compound 13, N-(5-chloropyridin-2-yl)-2-(1′-cyano-3-methyl-1′,2′,3′,6′-tetrahydro-[2,4′-bipyridin]-5-yl)acetamide] are 0.01 to 0.1 µM and 75%. Consider `COCC(C)Oc1cc(NC(=O)Cc2ccc(C3=CCN(C#N)CC3)nc2)ncc1Cl` (stereo not drawn) [Compound 14, N-(5-chloro-4-((1-methoxypropan-2-yl)oxy)pyridin-2-yl)-2-(1′-cyano-1′,2′,3′,6′-tetrahydro-[2,4′-bipyridin]-5-yl)acetamide], for which the IC50 is less than 0.01 µM and the inhibition at 10 µM came out at 96%.

For `N#CN1CC=C(c2ccc(CC(=O)Nc3cc(OC4COC4)c(Cl)cn3)cn2)CC1` [Compound 15, N-(5-chloro-4-(oxetan-3-yloxy)pyridin-2-yl)-2-(1′-cyano-1′,2′,3′,6′-tetrahydro-[2,4′-bipyridin]-5-yl)acetamide], the half-maximal inhibitory concentration (IC50) was less than 0.01 µM and the inhibition at 10 µM is 96%. The corresponding values for `N#CN1CCC(c2ccc(CC(=O)Nc3ccc(Cl)cn3)cn2)C1` (stereo not drawn) [Compound 16, N-(5-chloropyridin-2-yl)-2-(6-(1-cyanopyrrolidin-3-yl)pyridin-3-yl)acetamide] are 0.01 to 0.1 µM and 89%.
